Source: ChEMBL document CHEMBL1201862, “PubChem BioAssay data set” (2004)
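Results reflect a 48-hour exposure of cells in 96-well plates to compound at five concentrations. Here, GI50 denotes the concentration required for 50% inhibition of growth.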 Activity calls are given as the source filed them. No stated cut-off is given here; in the data, active = GI50 up to about 1.1 µM and inactive = higher.

Assays:
Assay in all cases: growth of human tumour cells (NCI), 48 h
CCRF-CEM = test system: CCRF-CEM
UO-31 = test system: UO-31
HOP-62 = test system: HOP-62
Malme-3M = test system: Malme-3M
IGROV-1 = test system: IGROV-1
BT-549 = test system: BT-549
HCT-116 = test system: HCT-116
DLD-1 = test system: DLD-1
DU-145 = test system: DU-145
NCI/ADR-RES = test system: NCI/ADR-RES
NCI-H226 = test system: NCI-H226
SR = test system: SR
HCT-15 = test system: HCT-15
HT-29 = test system: HT-29
UACC-257 = test system: UACC-257
A549 = test system: A549
M14 = test system: M14
SN12C = test system: SN12C
M19-MEL = test system: M19-MEL
TK-10 = test system: TK-10
MCF7 = test system: MCF7
CAKI-1 = test system: CAKI-1
MDA-MB-231 = test system: MDA-MB-231
MOLT-4 = test system: MOLT-4
SW-620 = test system: SW-620
MDA-MB-435 = test system: MDA-MB-435
A498 = test system: A498
HL-60 = test system: HL-60
NCI-H460 = test system: NCI-H460
OVCAR-8 = test system: OVCAR-8
U-251 = test system: U-251
HCC 2998 = test system: HCC 2998
COLO 205 = test system: COLO 205
K562 = test system: K562
Hs-578T = test system: Hs-578T
DMS-114 = test system: DMS-114
T47D = test system: T47D
MDA-N = test system: MDA-N
OVCAR-3 = test system: OVCAR-3
NCI-H23 = test system: NCI-H23
RXF 393 = test system: RXF 393
KM12 = test system: KM12
DMS-273 = test system: DMS-273
OVCAR-4 = test system: OVCAR-4
KM-20L2 = test system: KM-20L2
ACHN = test system: ACHN
NCI-H522 = test system: NCI-H522
SK-MEL-28 = test system: SK-MEL-28
SK-MEL-5 = test system: SK-MEL-5
LOX IMVI = test system: LOX IMVI
PC-3 = test system: PC-3
SF-539 = test system: SF-539
SNB-78 = test system: SNB-78
SNB-75 = test system: SNB-75
SF-295 = test system: SF-295
OVCAR-5 = test system: OVCAR-5
RPMI-8226 = test system: RPMI-8226
SK-MEL-2 = test system: SK-MEL-2
UACC-62 = test system: UACC-62
HOP-92 = test system: HOP-92
LXFL 529 = test system: LXFL 529
786-0 = test system: 786-0
SK-OV-3 = test system: SK-OV-3
SF-268 = test system: SF-268
SNB-19 = test system: SNB-19
EKVX = test system: EKVX
XF498 = test system: XF498

Measured: GI50

CC(C)n1c2c([n+](C)c1/C=C/c1ccccc1)C(=O)c1ccccc1C2=O
inactive: UO-31 3.55 µM | NCI/ADR-RES 48.6 µM | CAKI-1 2.79 µM | Hs-578T 1.91 µM | ACHN 2 µM
3.67 µM: HCT-15
active: CCRF-CEM 0.0743 µM | HOP-62 0.398 µM | Malme-3M 107 nM | IGROV-1 15.7 nM | BT-549 241 nM | HCT-116 0.0748 µM | DLD-1 426 nM | DU-145 340 nM | NCI-H226 791 nM | SR 0.257 µM | HT-29 0.0875 µM | UACC-257 0.0398 µM | A549 0.587 µM | M14 0.318 µM | SN12C 0.0495 µM | M19-MEL 0.125 µM | TK-10 538 nM | MCF7 51.6 nM | MDA-MB-231 166 nM | MOLT-4 0.0504 µM | SW-620 0.0501 µM | MDA-MB-435 237 nM | A498 0.611 µM | HL-60 0.02 µM | NCI-H460 0.36 µM | OVCAR-8 0.07 µM | U-251 0.147 µM | HCC 2998 272 nM | COLO 205 < 0.01 µM | K562 0.0592 µM | DMS-114 < 14.8 nM | T47D 39.7 nM | MDA-N 299 nM | OVCAR-3 < 0.01 µM | NCI-H23 0.0908 µM | RXF 393 0.322 µM | KM12 0.132 µM | DMS-273 0.0348 µM | OVCAR-4 0.0278 µM | KM-20L2 0.0955 µM | NCI-H522 0.0201 µM | SK-MEL-28 0.312 µM | SK-MEL-5 0.07 µM | LOX IMVI 0.0721 µM | PC-3 149 nM | SF-539 0.0334 µM | SNB-78 0.0389 µM | SNB-75 0.419 µM | SF-295 0.916 µM | OVCAR-5 0.501 µM | RPMI-8226 0.0575 µM | SK-MEL-2 0.116 µM | UACC-62 0.198 µM | HOP-92 309 nM | LXFL 529 0.0861 µM | 786-0 0.259 µM | SK-OV-3 0.299 µM | SF-268 0.0703 µM | SNB-19 0.223 µM | EKVX 0.206 µM

CC[S+](C)c1ccc(-c2c3nc(c(-c4ccc([S+](C)CC)cc4)c4ccc([nH]4)c(-c4ccc([S+](C)CC)cc4)c4nc(c(-c5ccc([S+](C)CC)cc5)c5ccc2[nH]5)C=C4)C=C3)cc1.[O-][Cl+3]([O-])([O-])[O-].[O-][Cl+3]([O-])([O-])[O-].[O-][Cl+3]([O-])([O-])[O-].[O-][Cl+3]([O-])([O-])[O-] (stereo unspecified)
inactive: CCRF-CEM 18.9 µM | HOP-62 30.1 µM | Malme-3M 4400 nM | HCT-116 27.9 µM | SR 18.5 µM | HT-29 29.2 µM | UACC-257 31 µM | A549 18.5 µM | M14 24.9 µM | SN12C 16.8 µM | M19-MEL 40.9 µM | CAKI-1 39.1 µM | MOLT-4 20 µM | SW-620 28.3 µM | A498 36.6 µM | HL-60 6.41 µM | NCI-H460 22 µM | OVCAR-8 22.9 µM | U-251 16.6 µM | COLO 205 35.9 µM | K562 13.9 µM | OVCAR-3 56.9 µM | NCI-H23 38.6 µM | RXF 393 13.6 µM | KM12 20.3 µM | DMS-273 34.4 µM | OVCAR-4 > 100 µM | KM-20L2 14.1 µM | ACHN 29.6 µM | NCI-H522 29.6 µM | SK-MEL-28 18.9 µM | SK-MEL-5 24.7 µM | LOX IMVI 11.3 µM | SF-539 27.4 µM | SNB-78 56.2 µM | SNB-75 24.3 µM | SF-295 28.7 µM | OVCAR-5 21.7 µM | RPMI-8226 7.78 µM | SK-MEL-2 18.2 µM | UACC-62 12.9 µM | LXFL 529 10.1 µM | 786-0 27.7 µM | SK-OV-3 30.4 µM | SF-268 21.8 µM | SNB-19 93.8 µM | EKVX 11 µM
19.3 µM: HCT-15
active: XF498 881 nM | HOP-92 649 nM
